11 molecules from ChEMBL document CHEMBL1201862, “PubChem BioAssay data set” (2004) can be followed below.

Among the test systems are ACHN; BT-549; HCT-116; HCT-15; HT-29; MDA-MB-435; Malme-3M; NCI/ADR-RES; SF-539; SK-MEL-28; SK-MEL-5; SNB-75; T47D; U-251; UACC-257; HCC 2998; IGROV-1; NCI-H522; RPMI-8226; RXF 393.
Common to all, as to assay: inhibition of tumour cell growth, NCI panel, 48 h

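Tested at 5 concentrations; 48 h exposure; 96-well plates; endpoints linearly interpolated, else capped at highest concentration. The concentration for 50% growth inhibition is given as GI50.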 Active and inactive are the calls of the source. Cut-off read from the data, not from the text of the source: active = GI50 up to about 1.1 µM and inactive = higher.

Turning to `CN1CCN(CCCN2c3ccccc3Sc3ccc(C(F)(F)F)cc32)CC1`, the GI50 in the test on ACHN is 10.7 µM (inactive); with BT-549, 12.1 µM (inactive); with HCT-116 it was 4.25 µM (inactive); in the test with HCT-15 it was 4.33 µM; in the test with HT-29 it was 2.35 µM (inactive); with MDA-MB-435, 2.92 µM (inactive). For the same molecule, the GI50 was 1.45 µM (inactive) in the test on Malme-3M; 8.22 µM (inactive) in the test with NCI/ADR-RES; 4.65 µM (inactive) in the test on SF-539; 1.66 µM (inactive) in the test on SK-MEL-28; 1.91 µM (inactive) with SK-MEL-5; 4.31 µM (inactive) in the test with SNB-75. In addition, the GI50 with T47D is 6.1 µM (inactive); with U-251 it was 4.95 µM (inactive); in the test with UACC-257 it was 1.91 µM (inactive).
As to `COc1ccccc1/N=N/C(=N/NC(=O)c1ccc(C)cc1)c1ccc(N(CCC#N)CCC#N)cc1OC`, the GI50 in the test with ACHN was 19.6 µM (inactive); in the test with BT-549, 32.3 µM (inactive); with HCC 2998, 34.2 µM (inactive); in the test with HCT-116 it was 25.1 µM (inactive); in the test on HCT-15, 42.3 µM; in the test on HT-29, 33.1 µM (inactive). For the same molecule, the GI50 is 37.6 µM (inactive) in the test with IGROV-1; 29.1 µM (inactive) with MDA-MB-435; 38.1 µM (inactive) in the test on Malme-3M; 33.7 µM (inactive) with NCI-H522; > 100 µM (inactive) in the test on NCI/ADR-RES; 14 µM (inactive) with RPMI-8226. In addition, the GI50 in the test on RXF 393 was 22.9 µM (inactive); in the test on SK-MEL-28 it was 36 µM (inactive); in the test with SK-MEL-5, 37.8 µM (inactive); in the test with T47D, 18.7 µM (inactive); with U-251, 32.5 µM (inactive); in the test on UACC-257 it was 38.3 µM (inactive).
Consider `COc1ccc(/C=C2/SC(c3ccc(Cl)cc3)N(NC(=O)CCCCCCCCC(=O)NN3C(=O)/C(=C\c4ccc(OC)c(OC)c4)SC3c3ccc(Cl)cc3)C2=O)cc1OC` (stereo not drawn), for which the GI50 in the test with ACHN was 65.2 µM (inactive); with BT-549, > 100 µM (inactive); in the test with HCC 2998, > 100 µM (inactive); with HCT-116 it was 30.6 µM (inactive); in the test on HCT-15 it was greater than 100 µM; with HT-29, > 100 µM (inactive). Moreover, the GI50 with IGROV-1 was 12.9 µM (inactive); in the test with MDA-MB-435, 42 µM (inactive); with NCI/ADR-RES it was > 100 µM (inactive); in the test with RPMI-8226, > 100 µM (inactive); in the test on RXF 393, 28 µM (inactive); in the test on SF-539, 29.2 µM (inactive). For the same molecule, the GI50 in the test with SK-MEL-28 is 83 µM (inactive); in the test with SK-MEL-5 it was 50.1 µM (inactive); in the test on SNB-75, > 100 µM (inactive); in the test with T47D it was > 100 µM (inactive); in the test with U-251, > 100 µM (inactive); in the test on UACC-257, 54.3 µM (inactive).
With `CC[C@@H](C)[C@H](NC(=O)[C@H](Cc1ccccc1)NCC(F)(F)F)C(=O)OC(C)(C)C`, the GI50 in the test with ACHN was > 100 µM (inactive); in the test on BT-549, > 100 µM (inactive); in the test with HCC 2998 it was > 100 µM (inactive); in the test with HCT-116, > 100 µM (inactive); in the test with HCT-15 it was greater than 100 µM; with HT-29, > 100 µM (inactive). The GI50 is > 100 µM (inactive) with IGROV-1; > 100 µM (inactive) in the test on MDA-MB-435; > 100 µM (inactive) in the test with Malme-3M; > 100 µM (inactive) in the test on NCI-H522; > 100 µM (inactive) in the test on NCI/ADR-RES; 42 µM (inactive) in the test with RXF 393. In addition, the GI50 was > 100 µM (inactive) in the test with SK-MEL-28; > 100 µM (inactive) in the test with SK-MEL-5; 25.6 µM (inactive) in the test on T47D; > 100 µM (inactive) in the test on U-251; 81.5 µM (inactive) in the test on UACC-257.
On to `CC(=O)OC(Cc1c(O)c2c(C)cccc2oc1=O)C(C)(C)O` (stereo not drawn), for which the GI50 with ACHN was > 100 µM (inactive); in the test on BT-549, > 100 µM (inactive); with HCC 2998, > 100 µM (inactive); in the test on HCT-116, 53.6 µM (inactive); in the test with HCT-15, greater than 100 µM; in the test on HT-29, > 100 µM (inactive). Further, the GI50 with IGROV-1 was > 100 µM (inactive); with MDA-MB-435, > 100 µM (inactive); in the test on Malme-3M it was > 100 µM (inactive); with NCI-H522, > 100 µM (inactive); in the test with NCI/ADR-RES it was 92.3 µM (inactive); in the test with RPMI-8226, > 100 µM (inactive). The GI50 in the test with SF-539 was > 100 µM (inactive); with SK-MEL-28, 88.1 µM (inactive); in the test with SK-MEL-5, > 100 µM (inactive); with SNB-75, 76 µM (inactive); in the test with T47D, 60.4 µM (inactive); in the test on U-251, > 100 µM (inactive). Besides, the GI50 in the test on UACC-257 is > 100 µM (inactive).
For the molecule `CC(C)(O)/C1=C/C=C/CCCCCCCCCC1`, the GI50 in the test on ACHN is > 100 µM (inactive); in the test on BT-549, > 100 µM (inactive); with HCC 2998, > 100 µM (inactive); in the test on HCT-116 it was > 100 µM (inactive); in the test with HCT-15, greater than 100 µM; in the test on HT-29, > 100 µM (inactive). Also, the GI50 with IGROV-1 was > 100 µM (inactive); with MDA-MB-435, > 100 µM (inactive); in the test on Malme-3M it was > 100 µM (inactive); in the test on NCI-H522 it was 95.9 µM (inactive); in the test with NCI/ADR-RES, > 100 µM (inactive); with RPMI-8226 it was 33.3 µM (inactive). Besides, the GI50 in the test on SK-MEL-28 was > 100 µM (inactive); in the test on SK-MEL-5, 0.246 µM (active); with SNB-75 it was 0.387 µM (active); with T47D, > 100 µM (inactive); in the test with U-251, > 100 µM (inactive); with UACC-257 it was > 100 µM (inactive).
With `COc1ccc(NC(=S)N/N=C/c2cccc(C)n2)cc1`, the GI50 was 2.83 µM (inactive) in the test with ACHN; 10.7 µM (inactive) with BT-549; 8.41 µM (inactive) with HCC 2998; 3.33 µM (inactive) in the test on HCT-116; 2.31 µM with HCT-15; 3.94 µM (inactive) with HT-29. For the same molecule, the GI50 was 2.37 µM (inactive) in the test on IGROV-1; 1.04 µM (active) in the test with MDA-MB-435; 3.13 µM (inactive) with Malme-3M; 0.203 µM (active) with NCI-H522; 2.78 µM (inactive) in the test with NCI/ADR-RES; 3.68 µM (inactive) with RPMI-8226. In addition, the GI50 in the test with SF-539 was 6.12 µM (inactive); in the test with SK-MEL-28, 5.68 µM (inactive); in the test on SK-MEL-5 it was 3.95 µM (inactive); in the test on SNB-75, 4.93 µM (inactive); in the test with T47D, 3.62 µM (inactive); with U-251, 4.09 µM (inactive). The GI50 in the test on UACC-257 was 2.53 µM (inactive).
For `CO/C=C(/C(=O)OC)c1ccccc1Oc1c(F)c(F)c(F)c(F)c1F`, the GI50 was 50.4 µM (inactive) in the test on ACHN; > 100 µM (inactive) with BT-549; 36.7 µM (inactive) in the test with HCC 2998; 22.9 µM (inactive) in the test on HCT-116; 54.2 µM in the test on HCT-15; 32.4 µM (inactive) in the test with HT-29. The GI50 in the test on IGROV-1 is 29.3 µM (inactive); in the test on MDA-MB-435, 29.7 µM (inactive); in the test on NCI/ADR-RES, 40.7 µM (inactive); in the test with RPMI-8226, 16.8 µM (inactive); with RXF 393, 20.7 µM (inactive); in the test with SF-539 it was 56 µM (inactive). Also, the GI50 is 55.7 µM (inactive) with SK-MEL-28; 20.9 µM (inactive) with SK-MEL-5; 21.2 µM (inactive) with T47D; 44.7 µM (inactive) with U-251; 24.9 µM (inactive) in the test on UACC-257.
`CCCNC(=O)c1cc(NC(=O)c2cc(NC(=O)CCS(=O)(=O)OC)cn2C)cn1C`: the GI50 with ACHN is 52.4 µM (inactive); in the test with BT-549, 3.68 µM (inactive); with HCC 2998, 43.5 µM (inactive); in the test with HCT-116 it was 12.8 µM (inactive); in the test on HCT-15 it was greater than 100 µM; with HT-29, 22 µM (inactive). The GI50 in the test on IGROV-1 was 15 µM (inactive); in the test with MDA-MB-435, 19.1 µM (inactive); in the test on Malme-3M, 8.41 µM (inactive); in the test on NCI-H522, 1.87 µM (inactive); with NCI/ADR-RES, > 100 µM (inactive); with RPMI-8226 it was > 100 µM (inactive). Also, the GI50 in the test on RXF 393 was 14.4 µM (inactive); in the test with SK-MEL-28, 33.3 µM (inactive); in the test on SK-MEL-5 it was 17.1 µM (inactive); in the test with SNB-75 it was 20.6 µM (inactive); with T47D, 5.11 µM (inactive); in the test on U-251, 6.62 µM (inactive). Also, the GI50 in the test with UACC-257 is 24 µM (inactive).
For the molecule `C=C(C)COC1CCCCO1` (stereo not drawn), the GI50 was > 100 µM (inactive) in the test with ACHN; > 100 µM (inactive) in the test with BT-549; > 100 µM (inactive) with HCC 2998; > 100 µM (inactive) in the test on HCT-116; greater than 100 µM with HCT-15; > 100 µM (inactive) in the test with HT-29. Besides, the GI50 in the test with IGROV-1, in the test on MDA-MB-435, with Malme-3M, in the test with NCI-H522, in the test with NCI/ADR-RES and with RPMI-8226 was > 100 µM (inactive) in each case. The GI50 in the test on SF-539, with SK-MEL-28, in the test on SK-MEL-5, with SNB-75, with T47D and with U-251 was > 100 µM (inactive) each time. In addition, in the test with UACC-257, the GI50 was > 100 µM (inactive).
With `Cc1nnc(N)nc1C/C=C/C(Sc1ccc(Cl)cc1)c1ccccc1` (stereo not drawn), the GI50 in the test on ACHN was 4.3 µM (inactive); in the test with BT-549, 2.13 µM (inactive); with HCC 2998 it was 9.38 µM (inactive); with HCT-116, 3.59 µM (inactive); in the test with HCT-15, 3.25 µM; in the test on HT-29 it was 7.01 µM (inactive). Moreover, the GI50 was 1.82 µM (inactive) in the test on IGROV-1; 3.15 µM (inactive) in the test on MDA-MB-435; 3.06 µM (inactive) in the test with Malme-3M; 1.81 µM (inactive) in the test with NCI-H522; 4.69 µM (inactive) in the test on NCI/ADR-RES; 1.43 µM (inactive) in the test with RPMI-8226. Besides, the GI50 with RXF 393 is 4.45 µM (inactive); in the test with SK-MEL-28, 6.78 µM (inactive); in the test with SK-MEL-5, 4.35 µM (inactive); with SNB-75, 4.45 µM (inactive); in the test on T47D, 11.2 µM (inactive); in the test on U-251 it was 2.91 µM (inactive). Also, the GI50 with UACC-257 was 4.22 µM (inactive).
